Measured values: patent US20240173332A1, “BENZO[…] TREATING OR PREVENTING RESPIRATORY SYNCYTIAL VIRUS INFECTION” (Pfizer Inc., priority 2021, published 2024)
Where a name gives a salt, the structure may show the parent alone. Read-outs that look alike come from different tables or passages of the source.

Tests used:
Cell cytotoxicity CC50 = format: cell-based; conditions: human, Hep-G2 cells; mean of at least two experiments unless (n = 1)
RSV A2 = assay: RSV plaque reduction assay in Hep-G2 cells; format: cell-based, respiratory syncytial virus (RSV); conditions: human respiratory syncytial virus, HepG2, 48 h, mean of at least two experiments
Experimental: Compounds were subjected to RSV plaque reduction assays according to the following protocol. Plaque EC50 and cell toxicity CC50 values are a mean of at least two experiments and figures are rounded to whole units.
Hep-G2 cells (ECACC, 85011430) were passaged in flasks and seeded in 24-well plates in DMEM containing antibiotics and supplemented with 10% FBS. During inoculation and subsequent incubation, cells were cultured in DMEM containing 2% FBS. 100 plaque forming unit/well of RSV (RSV A2 ECACC, 0709161v) was mixed with eight serial dilutions of compound. Subsequently, 100 μL of the virus/compound mixtures was added to confluent Hep-G2 cell monolayers. The cells and virus/compound mixtures were incubated at 37° C. in a humidified 5% CO2 incubator for 2 h prior to removal of the inoculum and addition of 1 mL of overlay (DMEM containing 2% FBS and 0.8% CMC) containing compound dilutions. The cells and were incubated at 37° C. in a humidified 5% CO2 incubator for 2 days.
Cells were washed with PBS before adding 75/25% v/v EtOH/MeOH, for 3 min. Fixative was removed and plates were washed with PBS. A pre-titrated amount of the primary antibody was added in 200 μL PBS/2% milk powder, and plates incubated for 90 min at 37° C. The plates were washed 3 times with PBS/0.05% Tween20 before addition of rabbit anti-goat horse radish peroxidase in 200 μL PBS/2% milk powder, and incubated for 1 h at 37° C. Following three wash steps with PBS/0.05% Tween20, 200 μL ready-to-use TrueBlue was added and plates were incubated at rt for 10-15 min before washing with water. After removal of water, plates were air-dried in the dark. Plates were scanned and analysed using the Immunospot S6 Macro analyser, which is equipped with BioSpot analysis software for counting immunostained plaques (virospots). Plaque counts were used to calculate % infection relative to the mean of the plaque count in the virus control wells for RSV. The EC50 value was calculated as 50% reduction in signal, respectively, by interpolation of inhibition curves fitted with a 4-parameter nonlinear regression with a variable slope in Dotmatics. Plaque EC50 and cell toxicity CC50 values are a mean of at least two experiments and figures are rounded to whole units.

[1] = Hep-G2 cells, RSV A2, 2 days, read-out: RSV A2 Plaque EC50

## CN(C)S(=O)(=O)c1ccc(-c2nn3cccnc3c2C(=O)N[C@H]2N=C(c3ccccc3)c3cccc(F)c3NC2=O)c(F)c1 [Example 25, 2-[4-(Dimethylsulfamoyl)-2-fluorophenyl]-N-[(3S)-9-fluoro-2-oxo-5-phenyl-1,3-dihydro-1,4-benzodiazepin-3-yl]pyrazolo[1,5-a]pyrimidine-3-carboxamide]
Cell cytotoxicity CC50
  CC50: > 25000 nM
RSV A2; [1]
  EC50: 1.2 nM

## NC(=O)c1ccc(-c2nn3cccnc3c2C(=O)N[C@H]2N=C(c3ccccc3)c3cccc(F)c3NC2=O)c(F)c1 [Example 27, 2-(4-Carbamoyl-2-fluorophenyl)-N-[(3S)-9-fluoro-2-oxo-5-phenyl-1,3-dihydro-1,4-benzodiazepin-3-yl]pyrazolo[1,5-a]pyrimidine-3-carboxamide]
Cell cytotoxicity CC50
  CC50: > 25000 nM
RSV A2; [1]
  EC50: 49 nM

## CC(O)c1ccc(-c2nn3cccnc3c2C(=O)N[C@H]2N=C(c3ccccc3)c3ccccc3NC2=O)c(F)c1 (single isomer, unassigned) [Example 16-1, 2-[2-Fluoro-4-[(1S*)-1-hydroxyethyl]phenyl]-N-[(3S)-2-oxo-5-phenyl-1,3-dihydro-1,4-benzodiazepin-3-yl]pyrazolo[1,5-a]pyrimidine-3-carboxamide]
Cell cytotoxicity CC50
  CC50: > 2500 nM
RSV A2; read-out: RSV A2 Plaque EC50, Hep-G2 cells, RSV A2, 2 days
  EC50: 8.2 nM

## O=C(N[C@H]1N=C(c2ccccc2)c2ccccc2NC1=O)c1c(-c2ccc(O)cc2F)nn2cccnc12 [Example 11, 2-(2-Fluoro-4-hydroxyphenyl)-N-[(3S)-2-oxo-5-phenyl-1,3-dihydro-1,4-benzodiazepin-3-yl]pyrazolo[1,5-a]pyrimidine-3-carboxamide]
Cell cytotoxicity CC50
  CC50: > 25000 nM
RSV A2; [1]
  EC50: 47 nM

## CC(C)(O)Cc1ccc(-c2nn3cccnc3c2C(=O)N[C@H]2N=C(c3ccccc3)c3ccccc3NC2=O)c(F)c1 [Example 15, 2-[2-Fluoro-4-(2-hydroxy-2-methylpropyl)phenyl]-N-[(3S)-2-oxo-5-phenyl-1,3-dihydro-1,4-benzodiazepin-3-yl]pyrazolo[1,5-a]pyrimidine-3-carboxamide]
Cell cytotoxicity CC50
  CC50: > 25000 nM
RSV A2; [1]
  EC50: 32 nM

## CC(C)n1cc(-c2nn3cccnc3c2C(=O)N[C@H]2N=C(c3ccccc3)c3ccccc3NC2=O)cn1 [Example 5, N-[(3S)-2-oxo-5-phenyl-1,3-dihydro-1,4-benzodiazepin-3-yl]-2-(1-propan-2-ylpyrazol-4-yl)pyrazolo[1,5-a]pyrimidine-3-carboxamide]
Cell cytotoxicity CC50
  CC50: > 25000 nM
RSV A2; [1]
  EC50: 66 nM

## O=C(N[C@H]1N=C(c2ccccc2)c2cccc(F)c2NC1=O)c1c(-c2cc(CO)ccc2F)nn2cccnc12 [Example 10, 2-[2-Fluoro-5-(hydroxymethyl)phenyl]-N-[(3S)-9-fluoro-2-oxo-5-phenyl-1,3-dihydro-1,4-benzodiazepin-3-yl]pyrazolo[1,5-a]pyrimidine-3-carboxamide]
Cell cytotoxicity CC50
  CC50: > 20200 nM
RSV A2; [1]
  EC50: 25 nM

## CC(C)(O)c1ccc(-c2nn3cccnc3c2C(=O)N[C@H]2N=C(c3ccccc3)c3ccccc3NC2=O)c(F)c1 [Example 20, 2-[2-Fluoro-4-(2-hydroxypropan-2-yl)phenyl]-N-[(3S)-2-oxo-5-phenyl-1,3-dihydro-1,4-benzodiazepin-3-yl]pyrazolo[1,5-a]pyrimidine-3-carboxamide]
Cell cytotoxicity CC50
  CC50: > 25000 nM
RSV A2; [1]
  EC50: 8.7 nM

## CC(C)[C@H](N)C(=O)OCc1ccc(-c2nn3cccnc3c2C(=O)N[C@H]2N=C(c3ccccc3)c3ccccc3NC2=O)c(F)c1 [Example 30, [3-Fluoro-4-(3-{[(3S)-2-oxo-5-phenyl-1,3-dihydro-1,4-benzodiazepin-3-yl]carbamoyl}pyrazolo[1,5-a]pyrimidin-2-yl)phenyl]methyl (2S)-2-amino-3-methylbutanoate hydrochloride]
Cell cytotoxicity CC50
  CC50: > 25000 nM
RSV A2; [1]
  EC50: 44 nM

## CCS(=O)(=O)c1ccc(-c2nn3cccnc3c2C(=O)N[C@H]2N=C(c3ccccc3)c3cccc(F)c3NC2=O)c(F)c1 [Example 23, 2-(4-Ethylsulfonyl-2-fluorophenyl)-N-[(3S)-9-fluoro-2-oxo-5-phenyl-1,3-dihydro-1,4-benzodiazepin-3-yl]pyrazolo[1,5-a]pyrimidine-3-carboxamide]
Cell cytotoxicity CC50
  CC50: > 25000 nM
RSV A2; [1]
  EC50: 3 nM

## O=C(N[C@H]1N=C(c2ccccc2)c2ccccc2NC1=O)c1c(-c2cc(CO)ccc2F)nn2cccnc12 [Example 9, 2-[2-Fluoro-5-(hydroxymethyl)phenyl]-N-[(3S)-2-oxo-5-phenyl-1,3-dihydro-1,4-benzodiazepin-3-yl]pyrazolo[1,5-a]pyrimidine-3-carboxamide]
Cell cytotoxicity CC50
  CC50: > 25000 nM
RSV A2; [1]
  EC50: 60 nM

## O=C(N[C@H]1N=C(c2ccccc2)c2cccc(F)c2NC1=O)c1c(-c2ccc(O)cc2F)nn2cccnc12 [Example 12, 2-(2-Fluoro-4-hydroxyphenyl)-N-[(3S)-9-fluoro-2-oxo-5-phenyl-1,3-dihydro-1,4-benzodiazepin-3-yl]pyrazolo[1,5-a]pyrimidine-3-carboxamide]
Cell cytotoxicity CC50
  CC50: > 25000 nM
RSV A2; [1]
  EC50: 16 nM

## CC(O)c1ccc(-c2nn3cccnc3c2C(=O)N[C@H]2N=C(c3ccccc3)c3cccc(F)c3NC2=O)c(F)c1 (single isomer, unassigned) [Example 17-1, 2-[2-Fluoro-4-[(1S*)-1-hydroxyethyl]phenyl]-N-[(3S)-9-fluoro-2-oxo-5-phenyl-1,3-dihydro-1,4-benzodiazepin-3-yl]pyrazolo[1,5-a]pyrimidine-3-carboxamide]
Cell cytotoxicity CC50
  CC50: > 2500 nM
RSV A2; [1]
  EC50: 5.5 nM

## O=C(N[C@H]1N=C(c2ccccc2)c2ccccc2NC1=O)c1c(-c2ccc(CCO)cc2F)nn2cccnc12 [Example 21, 2-[2-Fluoro-4-(2-hydroxyethyl)phenyl]-N-[(3S)-2-oxo-5-phenyl-1,3-dihydro-1,4-benzodiazepin-3-yl]pyrazolo[1,5-a]pyrimidine-3-carboxamide]
Cell cytotoxicity CC50
  CC50: > 25000 nM
RSV A2; [1]
  EC50: 42 nM

## CS(=O)(=O)c1ccc(F)c(-c2nn3cccnc3c2C(=O)N[C@H]2N=C(c3ccccc3)c3cccc(F)c3NC2=O)c1 [Example 26, 2-(2-Fluoro-5-methylsulfonylphenyl)-N-[(3S)-9-fluoro-2-oxo-5-phenyl-1,3-dihydro-1,4-benzodiazepin-3-yl]pyrazolo[1,5-a]pyrimidine-3-carboxamide]
Cell cytotoxicity CC50
  CC50: > 25000 nM
RSV A2; [1]
  EC50: 61 nM

## NS(=O)(=O)c1ccc(-c2nn3cccnc3c2C(=O)N[C@H]2N=C(c3ccccc3)c3cccc(F)c3NC2=O)c(F)c1 [Example 24, N-[(3S)-9-Fluoro-2-oxo-5-phenyl-1,3-dihydro-1,4-benzodiazepin-3-yl]-2-(2-fluoro-4-sulfamoylphenyl)pyrazolo[1,5-a]pyrimidine-3-carboxamide]
Cell cytotoxicity CC50
  CC50: > 25000 nM
RSV A2; [1]
  EC50: 49 nM

## CC(O)c1ccc(-c2nn3cccnc3c2C(=O)N[C@H]2N=C(c3ccccc3)c3ccccc3NC2=O)c(F)c1 (stereo partly drawn) [Example 16, 2-[2-Fluoro-4-(1-hydroxyethyl)phenyl]-N-[(3S)-2-oxo-5-phenyl-1,3-dihydro-1,4-benzodiazepin-3-yl]pyrazolo[1,5-a]pyrimidine-3-carboxamide]
Cell cytotoxicity CC50
  CC50: > 25000 nM
RSV A2; [1]
  EC50: 7.6 nM

## CS(=O)(=O)c1ccc(-c2nn3cccnc3c2C(=O)N[C@H]2N=C(c3ccccc3)c3ccccc3NC2=O)c(F)c1 [Example 8, 2-(2-Fluoro-4-methylsulfonylphenyl)-N-[(3S)-2-oxo-5-phenyl-1,3-dihydro-1,4-benzodiazepin-3-yl]pyrazolo[1,5-a]pyrimidine-3-carboxamide]
Cell cytotoxicity CC50
  CC50: > 25000 nM
RSV A2; [1]
  EC50: 13 nM

## CC(O)c1ccc(-c2nn3cccnc3c2C(=O)N[C@H]2N=C(c3ccccc3)c3cccc(F)c3NC2=O)c(F)c1 (stereo partly drawn) [Example 17, 2-[2-Fluoro-4-(1-hydroxyethyl)phenyl]-N-[(3S)-9-fluoro-2-oxo-5-phenyl-1,3-dihydro-1,4-benzodiazepin-3-yl]pyrazolo[1,5-a]pyrimidine-3-carboxamide]
Cell cytotoxicity CC50
  CC50: > 25000 nM
RSV A2; [1]
  EC50: 6.9 nM

## O=C(N[C@H]1N=C(c2ccccc2)c2cccc(F)c2NC1=O)c1c(-c2ccc(CCO)cc2F)nn2cccnc12 [Example 22, 2-[2-Fluoro-4-(2-hydroxyethyl)phenyl]-N-[(3S)-9-fluoro-2-oxo-5-phenyl-1,3-dihydro-1,4-benzodiazepin-3-yl]pyrazolo[1,5-a]pyrimidine-3-carboxamide]
Cell cytotoxicity CC50
  CC50: > 25000 nM
RSV A2; [1]
  EC50: 25 nM

## CC(C)(O)Cc1ccc(-c2nn3cccnc3c2C(=O)N[C@H]2N=C(c3ccccc3)c3cccc(F)c3NC2=O)c(F)c1 [Example 14, 2-[2-Fluoro-4-(2-hydroxy-2-methylpropyl)phenyl]-N-[(3S)-9-fluoro-2-oxo-5-phenyl-1,3-dihydro-1,4-benzodiazepin-3-yl]pyrazolo[1,5-a]pyrimidine-3-carboxamide]
Cell cytotoxicity CC50
  CC50: > 25000 nM
RSV A2; [1]
  EC50: 20 nM
